Data from patent publication US9204653B2, “5-fluoro pyrimidine derivatives” (DOW AGROSCIENCES LLC, priority 2008, dated 2015).
Read-outs that look alike come from different tables or passages of the source.

Key:
[1] = tested on: Mycosphaerella graminicola; Anamorph: Septoria tritici; Bayer Code SEPTTR; assay: Leaf blotch of wheat, foliar fungicide treatment, one day protectant (1DP) or three day curative (3DC); format: in vivo, Septoria tritici on wheat plants (variety Yuma); conditions: Zymoseptoria tritici; for pest or weed control at 50 ppm / pest or weed control at 200 ppm: % disease control rating
[2] = tested on: Venturia inaequalis; Bayer Code VENTIN; assay: Apple scab; format: in vivo; conditions: 24 h, % disease control rating, one day protectant; for pest or weed control at 25 ppm: read-out: VENTIN 1 DP 25 ppm; for pest or weed control at 75 ppm: read-out: VENTIN 1 DP 75 ppm
[3] = tested on: Cercospora beticola; Bayer Code CERCBE; assay: Leaf spot of sugar beets; format: in vivo, Cercospora beticola on sugar beets (variety HH-88); conditions: 24 h, % disease control rating, one day protectant; for pest or weed control at 25 ppm: read-out: CERCBE 1 DP 25 ppm; for pest or weed control at 75 ppm: read-out: CERCBE 1 DP 75 ppm
[4] = 24 h, one day protectant (1DP), rating of percent disease control, read-out: SETTTR 1DP 25 ppm
[5] = 24 h, one day protectant (1DP), rating of percent disease control, read-out: SEPTTR 1DP 100 ppm
[6] = 72 h, three day curative (3DC), rating of percent disease control, read-out: SEPTTR 3DC 25 ppm
[7] = 72 h, three day curative (3DC), rating of percent disease control, read-out: SEPTTR 3DC 100 ppm
[8] = 24 h, one day protectant, rating of percent disease control, read-out: SETTTR 1DP 25 ppm
[9] = 24 h, one day protectant, rating of percent disease control, read-out: SEPTTR 1DP 100 ppm
[10] = 72 h, three day curative, rating of percent disease control, read-out: SEPTTR 3DC 25 ppm
[11] = 72 h, three day curative, rating of percent disease control, read-out: SEPTTR 3DC 100 ppm

SMILES | pest or weed control at 25 ppm [1, 4] [%] | pest or weed control at 100 ppm [1, 5] [%] | pest or weed control at 25 ppm [1, 6] [%] | pest or weed control at 100 ppm [1, 7] [%] | pest or weed control at 25 ppm [2] [%] | pest or weed control at 75 ppm [2] [%] | pest or weed control at 25 ppm [3] [%] | pest or weed control at 75 ppm [3] [%] | pest or weed control at 25 ppm [1, 8] [%] | pest or weed control at 100 ppm [1, 9] [%] | pest or weed control at 25 ppm [1, 10] [%] | pest or weed control at 100 ppm [1, 11] [%] | pest or weed control at 50 ppm ([1]; 24 h, one day protectant) [%] | pest or weed control at 200 ppm ([1]; 24 h, one day protectant) [%] | pest or weed control at 25 ppm ([1]; 24 h, one day protectant (1DP), percent disease control rating, read-out: SETTTR 1DP 25 ppm) [%] | pest or weed control at 100 ppm ([1]; 24 h, one day protectant (1DP), percent disease control rating, read-out: SEPTTR 1DP 100 ppm) [%] | pest or weed control at 25 ppm ([1]; 72 h, three day curative (3DC), percent disease control rating, read-out: SEPTTR 3DC 25 ppm) [%] | pest or weed control at 100 ppm ([1]; 72 h, three day curative (3DC), percent disease control rating, read-out: SEPTTR 3DC 100 ppm) [%]
COc1c(F)cccc1COc1ncc(F)c(N)n1 [Compound 341] | 76 to 100 | 76 to 100 | 76 to 100 | 76 to 100 | 26 to 50 | 0 to 25 | 0 to 25 | 0 to 25 |  |  |  |  |  |  |  |  |  | 
CC(=O)Nc1nc(OCCNc2ccccc2)ncc1F [Compound 214] | 0 to 25 | 0 to 25 | 0 to 25 | 0 to 25 | 76 to 100 | 76 to 100 | 51 to 75 | 51 to 75 |  |  |  |  |  |  |  |  |  | 
Nc1nc(OCC2CCCC2)ncc1F [Compound 370] | 0 to 25 | 0 to 25 | 0 to 25 | 0 to 25 | 26 to 50 | 26 to 50 | 26 to 50 | 26 to 50 |  |  |  |  |  |  |  |  |  | 
COc1ccc(COc2ncc(F)c(/N=C3\CCCCN3C)n2)cc1F [Compound 732] |  |  |  |  | 26 to 50 | 76 to 100 | 26 to 50 | 76 to 100 | 76 to 100 | 76 to 100 | 51 to 75 | 76 to 100 |  |  |  |  |  | 
Nc1nc(OCc2ccc(F)cc2C(F)(F)F)ncc1F [Compound 271] | 76 to 100 | 76 to 100 | 51 to 75 | 76 to 100 | 26 to 50 | 51 to 75 | 26 to 50 | 26 to 50 |  |  |  |  |  |  |  |  |  | 
Nc1nc(OCCn2cncn2)ncc1F [Compound 933] |  |  |  |  | 0 to 25 | 26 to 50 | 26 to 50 | 26 to 50 |  |  |  |  | 26 to 50 | 51 to 75 |  |  |  | 
Fc1cnc(OC2CCCCC2)nc1N1CCOCC1 [Compound 941] |  |  |  |  | 51 to 75 | 26 to 50 | 0 to 25 | 0 to 25 |  |  |  |  | 0 to 25 | 0 to 25 |  |  |  | 
Fc1ccc(COc2ncc(F)c(NCn3c(-c4cscn4)nc4ccccc43)n2)cc1 [Compound 694] |  |  |  |  | 26 to 50 | 51 to 75 | 26 to 50 | 26 to 50 | 0 to 25 | 26 to 50 | 0 to 25 | 26 to 50 |  |  |  |  |  | 
CS(=O)(=O)c1ccc(COc2ncc(F)c(N)n2)cc1 [Compound 207] | 0 to 25 | 26 to 50 | 0 to 25 | 0 to 25 | 0 to 25 | 26 to 50 | 0 to 25 | 0 to 25 |  |  |  |  |  |  |  |  |  | 
Cn1nc(Oc2ncc(F)c(N)n2)cc1C(F)(F)F [Compound 764] | 0 to 25 | 0 to 25 | 0 to 25 | 0 to 25 | 26 to 50 | 26 to 50 | 26 to 50 | 0 to 25 |  |  |  |  |  |  |  |  |  | 
CCOC(=O)C(=O)Nc1nc(OCc2ccc(F)cc2)ncc1F [Compound 11, N-[5-Fluoro-2-(4-fluorobenzyloxy)pyrimidin-4-yl]oxalamic acid ethyl ester] |  |  |  |  | 76 to 100 | 76 to 100 | 0 to 25 | 0 to 25 |  |  |  |  |  |  | 76 to 100 | 76 to 100 | 76 to 100 | 76 to 100
Nc1nc(OCc2ccc(-c3ccccn3)s2)ncc1F [Compound 316] | 76 to 100 | 76 to 100 | 76 to 100 | 76 to 100 | 76 to 100 | 76 to 100 | 51 to 75 | 76 to 100 |  |  |  |  |  |  |  |  |  | 
